Measurements from patent US8828966B2, “Method for treatment of macular degeneration by modulating P2Y12 or P2X7 receptors” (priority 2006, dated 2014).

Tests used:
ARPE-19 cells [1] = assay: Lysosomal pH (pHL) with LysoSensor Yellow/Blue, high through-put screen; type: cell-based, human; settings: for effect on pHL of cells treated with tamoxifen: tamoxifen concentration not stated, A68930 and A77636 at 1 μM; for effect on pHL, agent alone: cells without other alkalinizing agent, NH4Cl 10 mM, BAF 200 nM, CHQ 20 μM, CFTR-172 10 μM, LDL 10 μg/ml, others not given; for effect on pHL of cells treated with chloroquine: chloroquine (20 μM with CGS21680 100 nM); for effect on pHL of cells treated with 30 μM tamoxifen: CFTRAct16 at 10 μM
Experimental: Lysosensor Yellow/Blue co-localized with the Lysotracker Red dye in small vesicles, with a distribution consistent with lysosomal origin. Measurements of pHL were performed using a high throughput screening (HTS) protocol to maximize output and minimize variation using ARPE-19 cells in 96 well plates. […] Loading for 5 min. at 23° C. with 5 μM lysosensor, followed by 15 min. for internalization, produced stable and reproducible results.
The ratio was converted to pH by calibrating with KCl buffered to pH 4.0-6.0 in the presence of monensin and nigericin. Calibration indicated a baseline pH of 4.4 to 4.5, supporting lysosomal localization. […] NH4Cl decreased the ratios slightly at 380 nm. Nevertheless, absent the addition of the dye, none of these compounds, or any others, altered the fluorescent signal at 340 or 380 nm, showing a specificity of the measured change to pHL. […] This quantification is necessary to predict the potential effectiveness of acidifying drugs to restore lysosomal enzyme activity.
Extensive trials determined that the optimal response is obtained with 5 minute dye loading and 15 minute post-incubation. […] All reagents were from Sigma Chemical Corp. unless otherwise indicated.
In general, each condition below used 3-12 independent wells per plate, in 3-6 separate plates. As levels from individual plates varied, data was normalized to the mean pHL for control wells from each plate. Fluorescent ratios were converted to pH following calibration performed on each plate as described. Incubation with Lysosensor Yellow/Blue was kept constant and all measurements were performed 15 min after removal of dye from the bath to ensure continuity. Significance was determined with a one-way ANOVA and Tukey post test. Drugs were always tested on control cells to ensure modification of healthy RPE cells was minimal, and cells were not exposed to dye to make sure effects were specific. All background was subtracted from the fluorescence excited at 340 and 380 nm independently before calculation of the ratio.

ARPE-19 cells [2] = assay: FACS analysis of autofluorescence (excited at 488 nm); type: cell-based, human; settings: for effect on autofluorescence enhanced by POS+CHQ: photoreceptor outer segments plus 10 μM chloroquine, 7 days
Source text: To maintain a balance between the synthesis, degradation, and subsequent recycling of cellular products there are a variety of autophagic responses, but all involve degradation of intracellular components via the lysosome. Typically, autophagy involves the formation of a membrane around a targeted region of the cell, separating the contents from the rest of the cytoplasm, and then the resultant vesicle fuses with a lysosome and the contents are subsequently degraded.

ARPE-19 cells [3] = assay: Clearance (degradation) of calcein-labeled photoreceptor outer segments; type: cell-based, human; settings: 100 nM CGS with 20 μM CHQ, 24 hrs
Experimental: Outer Segment Degradation: Bovine retinas were homogenized in 20% sucrose with 130 mM NaCl, 20 mM Tris-HCl, 10 mM glucose, 5 mM taurine and 2 mM MgC12 (pH 7.20). The homogenate was placed in ultracentrifuge tubes with 20%, 27%, 33%, 41%, 50% and 60% sucrose, respectively, and centrifuged for 70 minutes at 28,000 rpm on a SW28 rotor (4° C.). The supernatant was filtered, diluted in 0.02M Tris-HCl buffer (pH 7.2) and centrifuged at 13,000×g for 10 minutes (4° C.). The pellet was resuspended in […], 0.1 mM NaCl and 2.5% sucrose. Outer segments were loaded with 5 μM calcein-AM in PBS for 10 minutes, and spun 2× at 14,000 rpm to wash. Outer segments were then diluted 1:100 in growth medium and added to ARPE-19 cells in 96-well plates.
Isolated bovine outer segments loaded with calcein were supplied to ARPE-19 cells in 96-well plates for 2 hrs, washed 3× and maintained in control medium for an additional 3 hr (see Methods). […] Promising compounds were examined for their effects on cells treated with A2E, although the restoration of pHL is unlikely to remove A2E itself. However, other components of the outer segments are amendable to digestion by lysosomal enzymes at the appropriate pHL, and acidification could minimize the secondary effect of this accumulation.

[4] = test system: primary cultures of bovine RPE cells; assay: Lysosomal pH in primary bovine RPE cultures; type: cell-based; settings: tamoxifen
Experimental: Isolation of Bovine and Mouse RPE Cells: The bovine RPE-choroid and sclera were removed, incubated in 2.5% trypsin at 37° C. in 5% CO2 for 30 min, after which RPE sheets are dissected, washed and plated in 96-well plates with 10% serum medium. Mouse eyes were incubated in DMEM for 3 hrs at room temperature (RT), then in 0.1% trypsin and 0.4 mg/ml collagenase IV with 1 mM EDTA for 45 min at RT. RPE sheets were dissected out, washed, and incubated with 0.25% trypsin/0.02% EDTA in order to obtain a suspension of single cells, then grown as above.
HTS Measurement of pHL: ARPE-19 cells were grown in 96-well plates, rinsed 3× with isotonic solution (IS; prepared from NaCl 105 mM, KCl 5 mM, HEPES Acid 6 mM, Na HEPES 4 mM, NaHCO3 5 mM, mannitol 60 mM, glucose 5 mM, MgCl2 0.5 mM, CaCl2 1.3 mM) and incubated with 5 μM LysoSensor Yellow/Blue (Invitrogen Corp.) diluted with IS. Extensive trials determined that the optimal response is obtained with 5 minute dye loading and 15 minute post-incubation. Fluorescence was measured with a Fluoroskan 96-well Plate Reader (Thermo Electron Corp.). pHL was determined from the ratio of light excited at 340 nm vs 380 nm ([…] em). pHL was calibrated by exposing cells to 10 μM H^+/Na^+ ionophore monensin and 20 μM H^+/K^+ ionophore nigericin in 20 MES, 110 KCl and 20 NaCl at pH 3.0-7.0 for 15 min. All reagents were from Sigma Chemical Corp. unless otherwise indicated.

With `Nc1ncnc2c1nc(Br)n2[C@@H]1O[C@@H]2COP(=O)(O)O[C@H]2[C@H]1O` [8-Br-cAMP, 8-bromo-adenosine 3′,5′-cyclic monophosphate] the “effect on pHL of cells treated with 10 μM tamoxifen” value (from here on “effect … with 10 μM tamoxifen”) (ARPE-19 cells [1]) was “not significant”.
`C[C@]12CC[C@@H]3c4ccc(O)cc4CC[C@H]3[C@@H]1CC[C@@H]2O` [17-β estradiol] was tested, and the “effect on pHL of cells treated with tamoxifen” value (ARPE-19 cells [1]) was “neither mimicked, nor inhibited”.
For `CCCSc1nc(N)c2ncn([C@@H]3O[C@H](COP(=O)([O-])OP(=O)([O-])C(F)(F)P(=O)([O-])[O-])[C@@H](O)[C@H]3O)c2n1.[Na+].[Na+].[Na+].[Na+]` [AR-C66096, 2-(Propylthio) adenosine-5′-O-(β,γ-difluoromethylene) triphosphate tetrasodium salt], the “effect on pHL elevation by P2Y12 agonist MeSADP” value (ARPE-19 cells [1]; cells stimulated with MeSADP) was “inhibited these actions and restored lysosomal acidity” and the “effect on autofluorescence enhanced by POS+CHQ” value (ARPE-19 cells [2]) was “reduced this enhanced auto-fluorescence to near control levels”.
For `CCOc1ccc(Nc2ccc(/C(=C3C=C/C(=[N+](/CC)Cc4cccc(S(=O)(=O)[O-])c4)C=C/3C)c3ccc(N(CC)Cc4cccc(S(=O)(=O)[O-])c4)cc3C)cc2)cc1.[Na+]` [BBG], the “effect on pHL rise by P2X7 agonist BzATP” value (ARPE-19 cells [1]; cells stimulated with BzATP) was “prevented this rise” and the “effect on autofluorescence enhanced by POS+CHQ” value (ARPE-19 cells [2]) was “reduced this enhanced autofluorescence”.
For `O=C(O)c1ccc(/C=C2\SC(=S)N(c3cccc(C(F)(F)F)c3)C2=O)cc1` [CFTR-172], the “effect on pHL, agent alone” value (ARPE-19 cells [1]) was “increased lysosomal pH”.
In the case of `CCNC(=O)[C@H]1O[C@@H](n2cnc3c(N)nc(NCCc4ccc(CCC(=O)O)cc4)nc32)[C@H](O)[C@@H]1O` [CGS21680], the “effect … with 10 μM tamoxifen” value (ARPE-19 cells [1]) is reported as “Over half of the increase triggered by 10 μM tamoxifen was reversed”, the “effect on pHL of cells treated with chloroquine” value (ARPE-19 cells [1]) is reported as “decreased the lysosomal alkalinization” and the “effect on pHL of cells treated with tamoxifen” value (ARPE-19 cells [1]) is reported as “acidified the lysosomes”. For the same molecule, the “degradative capacity (outer segment clearance) in chloroquine-treated cells” value (ARPE-19 cells [3]) was “restored the degradative capacity”.
With `OC[C@H]1O[C@@H](n2cnc3c(NC4CCCC4)ncnc32)[C@H](O)[C@@H]1O` [CPA, N^6-cyclopentyl-adenosine] the “effect on pHL of cells treated with tamoxifen” value (ARPE-19 cells [1]) was “had no effect”.
`OC[C@H]1O[C@@H](n2cnc3c(NC4CC5CCC4C5)ncnc32)[C@H](O)[C@@H]1O` (stereo partly drawn) [ENBA, (2S)-N^6-[2-endo-norbornyl]adenosine] was tested, and the “effect on pHL of cells treated with tamoxifen” value (ARPE-19 cells [1]) was “had no effect”.
`CSc1nc(N)c2ncn([C@@H]3O[C@H](COP(=O)(O)OP(=O)(O)O)[C@@H](O)[C@H]3O)c2n1` [MeSADP] was tested, and the “effect on pHL, agent alone” value (ARPE-19 cells [1]) was “elevated the lysosomal pHL”.
In the case of `CCNC(=O)[C@H]1O[C@@H](n2cnc3c(N)ncnc32)[C@H](O)[C@@H]1O` [NECA, 5′-(N-ethylcarboxamido) adenosine], the “effect on pHL of cells treated with tamoxifen” value (ARPE-19 cells [1]) is reported as “reversed lysosomal alkalinization by tamoxifen” and the “effect on pHL of bovine cells treated with tamoxifen” value [4] is reported as “not quite significant”.
In the case of `O=C(O)c1cc([N+](=O)[O-])ccc1NCCCc1ccccc1` [NPPB, 5-nitro-2-(3-phenylpropylamino)-benzoate], the “effect on pHL of cells treated with tamoxifen” value (ARPE-19 cells [1]) is reported as “reversed”.
With `Nc1ncnc2c1ncn2[C@@H]1O[C@H](CO)[C@@H](O)[C@H]1O` [adenosine] the “effect on pHL of cells treated with tamoxifen” value (ARPE-19 cells [1]) was “reduce the pHL” and the “effect on pHL of bovine cells treated with tamoxifen” value [4] was “acidified the lysosomes”.
For `CO/C1=C\C(C)=C\[C@@H](C)[C@@H](O)[C@@H](C)C/C(C)=C/C=C/[C@H](OC)[C@@H]([C@@H](C)[C@@H](O)[C@H](C)[C@@]2(O)C[C@@H](O)[C@H](C)[C@@H](C(C)C)O2)OC1=O` [bafilomycin-A], the “effect on pHL, agent alone” value (ARPE-19 cells [1]) was “pH was elevated”.
`CCN(CC)CCCC(C)Nc1ccnc2cc(Cl)ccc12` (centres unmarked) [chloroquine] was tested, and the “effect on pHL, agent alone” value (ARPE-19 cells [1]) was “pH was elevated” and the “autofluorescence, agent alone” value (ARPE-19 cells [2]; 10 μM for 7 days) was “increased autofluorescence”.
`Nc1ncnc2c1nc(Sc1ccc(Cl)cc1)n2[C@@H]1O[C@@H]2COP(=O)([O-])O[C@H]2[C@H]1O.[Na+]` [cpt-cAMP, 8-(4-chlorophenylthio) adenosine-3′,5′-cyclic monophosphate] was tested, and the “effect … with 10 μM tamoxifen” value (ARPE-19 cells [1]) was “significantly decreased pHL” and the “effect on pHL of cells treated with 30 μM tamoxifen” value (from here on “effect … with 30 μM tamoxifen”) (ARPE-19 cells [1]) was “significantly decreased pHL”.
`CCN[C@H]1C[C@H](C)S(=O)(=O)c2sc(S(N)(=O)=O)cc21` [dorzolamide] was tested, and the “effect … with 30 μM tamoxifen” value (ARPE-19 cells [1]) was “did not lower pHL”.
In the case of `CNC[C@H](O)c1ccc(O)c(O)c1` [epinephrine], the “effect on pHL of cells treated with tamoxifen” value (ARPE-19 cells [1]) is reported as “significantly decrease pHL”.
With `O=c1c(-c2ccc(O)cc2)coc2cc(O)cc(O)c12` [genistein] the “effect on pHL, agent alone” value (ARPE-19 cells [1]) was “smaller effects” and the “effect on pHL of cells treated with tamoxifen” value (ARPE-19 cells [1]) was “acidified lysosomes”.
For `COc1ccc(Cl)cc1C(=O)NCCc1ccc(S(=O)(=O)NC(=O)NC2CCCCC2)cc1` [glybenclamide], the “effect on pHL, agent alone” value (ARPE-19 cells [1]) was “smaller effects” and the “effect on pHL of cells treated with tamoxifen” value (ARPE-19 cells [1]) was “increased pHL”.
`CC(C)NCC(O)c1ccc(O)c(O)c1` (centres unmarked) [isoproterenol] was tested, and the “effect on pHL of cells treated with tamoxifen” value (ARPE-19 cells [1]) was “significantly decrease pHL”.
With `CC(C)OC(=O)CCC/C=C\C[C@@H]1[C@@H](CC[C@@H](O)CCc2ccccc2)[C@H](O)C[C@@H]1O` [latanaprost] the “effect … with 30 μM tamoxifen” value (ARPE-19 cells [1]) was “did not lower pHL”.
`NC[C@H](O)c1ccc(O)c(O)c1` [norepinephrine] was tested, and the “effect on pHL of cells treated with chloroquine” value (ARPE-19 cells [1]) was “reduced pHL” and the “effect on pHL of cells treated with tamoxifen” value (ARPE-19 cells [1]) was “significantly decrease pHL”.
In the case of `CNC[C@H](O)c1cccc(O)c1` [phenylephrine], the “effect on pHL of cells treated with tamoxifen” value (ARPE-19 cells [1]) is reported as “no significant effect on pHL”.
`CN[C@@H]1C[C@H]2O[C@@](C)([C@@H]1OC)n1c3ccccc3c3c4c(c5c6ccccc6n2c5c31)C(=O)NC4` [staurosporine] was tested, and the “effect on pHL of cells treated with tamoxifen” value (ARPE-19 cells [1]) was “decrease in lysosomal pH”.
For `CC(C)(C)NC[C@H](O)COc1nsnc1N1CCOCC1` [timolol], the “effect … with 30 μM tamoxifen” value (ARPE-19 cells [1]) was “did not lower pHL” and the “effect on the reduction of pHL triggered by norepinephrine” value (ARPE-19 cells [1]; cells treated with tamoxifen plus norepinephrine) was “blocked”.
